Assay results published in article PMC4964800 (Bioorganic & medicinal chemistry letters, 2016).

Experiments:
Format in all cases: cell-based
[1] = system: STAT1; assay: IFN-γ-induced STAT1 pathway activation assay; settings: read-out: STAT1 IC50
[2] = system: STAT3; assay: IL-6-induced STAT3 activation high content; settings: for IC50: Homo sapiens, CAL-33, read-out: STAT3 IC50; for fold improvement in STAT3 potency compared to original hit 2b: vs 2b; for times less active (STAT3) after exchanging R-substituents of 1a and 2b: compared with 1a and 2b
[3] = system: pSTAT3 and STAT3 target gene Cyclin D1; assay: Western blot analysis in IL-6-stimulated Cal33 cells; settings: IL-6 (50 ng/mL)-stimulated Cal33 cells

Work on `COc1ccc(C2=Nn3c(nnc3-c3cc(-c4ccccc4)n[nH]3)SC2)cc1` [Compound 6b] yielded an IC50 [1] greater than 50 µM.

Compound `c1ccc(-c2cc(-c3nnc4n3N=C(c3ccncc3)CS4)[nH]n2)cc1` [Compound 7b] has an IC50 [1] greater than 50 µM.

With `CC1Sc2nnc(-c3cc(-c4ccccc4)n[nH]3)n2N=C1c1ccccc1` (stereo not drawn) [Compound 19] the IC50 [1] was 15 µM, the IC50 [2] was 3.4 µM and the “fold improvement in STAT3 potency compared to original hit 2b” value (“fold improvement … to original hit 2b” below) [2] was 2–3 fold. For the same compound, the “downstream STAT3 target gene Cyclin D1 by Western blot” value [3] was “significant inhibition” and the “pSTAT3 levels by Western blot” value [3] was “pronounced decreases”.

In the case of `Clc1ccc(C2=Nn3c(nnc3-c3[nH]nc4c3CCC4)SC2)cc1` [Compound 2a], the IC50 [1] is reported as greater than 50 µM and the “times less active (STAT3) after exchanging R-substituents of 1a and 2b” value [2] is reported as 3–4 times.

In the case of `COc1ccc(C2CSc3nnc(-c4cc(-c5ccccc5)n[nH]4)n3N2C(C)=O)cc1` (stereo not drawn) [Compound 13], the “activity in the STAT3 assay (in words)” value [2] is reported as “inactive”.

For `Clc1ccc(C2=Nn3c(nnc3-c3[nH]nc4c3CCC4)SC2)s1` [Compound 8a], the IC50 [1] was greater than 50 µM.

Work on `Clc1cccc(C2=Nn3c(nnc3-c3cc(-c4ccccc4)n[nH]3)SC2)c1` [Compound 4b] yielded an IC50 [1] of 45.9 ± 8.3 µM and an IC50 [2] of 5.6 ± 4 µM.

Work on `CC1=Nn2c(nnc2-c2[nH]nc3c2CCC3)SC1` [Compound 10a] yielded an IC50 [1] greater than 50 µM.

Work on `COc1ccc(C2=Nn3c(nnc3-c3[nH]nc4c3CCC4)SC2C(C)C)cc1` (stereo not drawn) [Compound 24] yielded an IC50 [1] greater than 50 µM.

`Clc1ccc(C2=Nn3c(nnc3-c3cc(-c4ccccc4)n[nH]3)SC2)s1` [Compound 8b] showed an IC50 [1] greater than 50 µM.

Compound `C1=Nn2c(nnc2-c2cc(-c3ccccc3)n[nH]2)SC1` [Compound 9b] has an IC50 [1] greater than 50 µM.

In the case of `c1cc(C2=Nn3c(nnc3-c3[nH]nc4c3CCC4)SC2)ccn1` [Compound 7a], the IC50 [1] is reported as greater than 50 µM.

In the case of `COc1ccc(C2=Nn3c(nnc3-c3cc(-c4ccc(F)cc4)n[nH]3)SC2C)cc1` (stereo not drawn) [Compound 21], the IC50 [1] is reported as greater than 30 µM, the IC50 [2] is reported as 4.2 µM and the “fold improvement … to original hit 2b” value [2] is reported as 2–3 fold.

With `Clc1ccc(C2=Nn3c(nnc3-c3cc(-c4ccccc4)[nH]n3)SC2)cc1` [Compound 2b] the IC50 [1] was greater than 50 µM and the IC50 [2] was 9.6 ± 7.8 µM.

`C1CCC(C2=Nn3c(nnc3-c3[nH]nc4c3CCC4)SC2)CC1` [Compound 11a] was tested, and the IC50 [1] was greater than 50 µM.

In the case of `c1ccc(C2=Nn3c(nnc3-c3cc(-c4ccccc4)[nH]n3)SC2)cc1` [Compound 5b], the IC50 [1] is reported as greater than 50 µM.

`COc1ccc(C2=Nn3c(nnc3-c3cc(-c4ccc(Cl)cc4)n[nH]3)SC2C)cc1` (stereo not drawn) [Compound 22] was tested, and the “downstream STAT3 target gene Cyclin D1 by Western blot” value [3] was “significant inhibition” and the “pSTAT3 levels by Western blot” value [3] was “pronounced decreases”.

With `CC1(C)Sc2nnc(-c3[nH]nc4c3CCC4)n2N=C1c1ccc(Cl)c(Cl)c1` [Compound 30] the IC50 [1] was greater than 50 µM and the IC50 [2] was 18.6 µM.

`COc1ccc(C2=Nn3c(nnc3-c3[nH]nc4c3CCC4)SC2)cc1` [Compound 6a] gave an IC50 [1] of 40.6 ± 7.5 µM.

With `COc1ccc(C2=Nn3c(nnc3-c3cc(-c4ccccc4)n[nH]3)SC2CC(C)C)cc1` (stereo not drawn) [Compound 26] the IC50 [1] was greater than 50 µM.

With `Clc1ccc(C2=Nn3c(nnc3-c3[nH]nc4c3CCC4)SC2)cc1Cl` [Compound 1a] the IC50 [1] was greater than 50 µM and the IC50 [2] was 6.8 ± 3.7 µM.

`CC1=Nn2c(nnc2-c2cc(-c3ccccc3)[nH]n2)SC1` [Compound 10b] was tested, and the IC50 [1] was greater than 50 µM.

With `CC(C)CC1Sc2nnc(-c3[nH]nc4c3CCC4)n2N=C1c1ccc(Cl)c(Cl)c1` (stereo not drawn) [Compound 25] the IC50 [1] was greater than 50 µM and the IC50 [2] was 4.1 µM.

`Fc1ccc(-c2cc(-c3nnc4n3N=C(c3ccc(Cl)c(Cl)c3)CS4)[nH]n2)cc1` [Compound 14] was tested, and the “fold improvement in STAT3 potency over unsubstituted analog 1b” value ([2]; vs 1b) was ~ 4 fold.

For `Clc1ccc(C2=Nn3c(nnc3-c3[nH]nc4c3CCCC4)SC2)cc1Cl` [Compound 16], the “fold less active than cyclopentyl analog 1a” value ([2]; vs 1a) was ~ 2 fold.

In the case of `C1=Nn2c(nnc2-c2[nH]nc3c2CCC3)SC1` [Compound 9a], the IC50 [1] is reported as greater than 50 µM.

`Clc1ccc(C2=Nn3c(nnc3-c3[nH]nc4c3CCC4)SC2Cc2ccccc2)cc1Cl` (stereo not drawn) [Compound 27] showed an IC50 [1] greater than 50 µM and an IC50 [2] of 7.5 µM.

Work on `CC1Sc2nnc(-c3[nH]nc4c3CCC4)n2N=C1c1ccc(Cl)c(Cl)c1` (stereo not drawn) [Compound 17] yielded an IC50 [1] greater than 50 µM and an IC50 [2] of 8.2 ± 2.2 µM.

In the case of `Clc1ccc(C2=Nn3c(nnc3-c3cc(-c4ccccc4)n[nH]3)SC2)cc1Cl` [Compound 1b], the IC50 [1] is reported as greater than 50 µM and the “times less active (STAT3) after exchanging R-substituents of 1a and 2b” value [2] is reported as 3–4 times.

For `c1ccc(-c2cc(-c3nnc4n3N=C(C3CCCCC3)CS4)[nH]n2)cc1` [Compound 11b], the IC50 [1] was greater than 50 µM.

In the case of `COc1ccc(C2=Nn3c(nnc3-c3[nH]nc4c3CCC4)SC2C)cc1` (stereo not drawn) [Compound 18], the IC50 [1] is reported as greater than 50 µM and the IC50 [2] is reported as 9.1 µM.

For `Clc1cccc(C2=Nn3c(nnc3-c3[nH]nc4c3CCC4)SC2)c1` [Compound 4a], the IC50 [1] was greater than 50 µM.

In the case of `COc1ccc(C2CSc3nnc(-c4[nH]nc5c4CCC5)n3N2)cc1` (stereo not drawn) [Compound 12], the “activity in the STAT3 assay (in words)” value [2] is reported as “inactive”.

Compound `CC(C)C1Sc2nnc(-c3[nH]nc4c3CCC4)n2N=C1c1ccc(Cl)c(Cl)c1` (stereo not drawn) [Compound 23] has an IC50 [1] greater than 50 µM and an IC50 [2] of 4.4 µM.

With `c1ccc(C2=Nn3c(nnc3-c3[nH]nc4c3CCC4)SC2)cc1` [Compound 5a] the IC50 [1] was greater than 50 µM and the IC50 [2] was 21.2 ± 23.5 µM.

With `CC1Sc2nnc(-c3cc(-c4ccc(F)cc4)n[nH]3)n2N=C1c1ccccc1` (stereo not drawn) [Compound 20] the IC50 [1] was greater than 30 µM, the IC50 [2] was 3.8 ± 0.8 µM and the “fold improvement … to original hit 2b” value [2] was 2–3 fold.
